Results reported in patent US7626042B2, “O-substituted hydroxyaryl derivatives” (Institute of Medicinal Molecular Design, Inc., priority 2002, dated 2009).
Counter-ions that a name gives are not always drawn.

Test system: NF-κB activation
Test: Inhibitory activity against NF-κB activation, luciferase reporter assay under TNF-α stimulation
Assay type: cell-based, human
Details: HepG2 cells, TNF-α 40 ng/ml, 4 hours; for inhibition at 1 µg/mL / inhibition at 10 µg/mL: Homo sapiens, read-out: Inhibitory Ratio of NF-κ B Activation(%)
Description: Inhibitory activity against NF-κB activation was measured by referring to the method of Hill et al. (Cell, (USA), in 1993, Vol. 73, No. 2, p. 395-406). Using a transfection reagent(Effectene; QIAGEN), the human hepatoma cell strain HepG2 was transfected with a plasmid (pNFκ Luc Reporter Plasmid; STRATAGENE) integrated with an oligonucleotide having five tandem copies of NF-κB binding sequences(TGGGGACTTTCCGC) on a upstream region of firefly luciferase gene (Luc) according to the QIAGEN's protocol, and the cells were incubated for 6 to 24 hours. Then the cells were cultured for 4 hours after the addition of TNF-α (40 ng/ml) in the presence of a test compound, and intracellular luciferase activity was measured by using PicaGene LT (TOYO INK MFG Co., Ltd.) and a chemical luminescence measurement apparatus(SPECTRAFluor Plus; TECAN). The inhibitory ratio was measured as a ratio relative to a value of the luciferase activity in the absence of the test compound.

## CC(C)(C)c1cc(NC(=O)c2cc(Br)ccc2OP(=O)([O-])O)cc(C(C)(C)C)c1.[Na+] [Compound 145]
Drug Concentration 1 μg/mL
  Inhibitory Ratio of NF-κ B Activation(%): 93.1%

## O=C1CCC(=O)N(c2cc(C(F)(F)F)cc(C(F)(F)F)c2)C(=O)c2cc(Cl)ccc2O1 [Compound 114]
Drug Concentration 1 μg/mL
  inhibition at 1 µg/mL: 97.2%
Drug Concentration 10 μg/mL
  inhibition at 10 µg/mL: 98.5%

## COCC(=O)Oc1ccc(Cl)cc1C(=O)Nc1cc(C(F)(F)F)cc(C(F)(F)F)c1 [Compound 10]
Drug Concentration 1 μg/mL
  Inhibitory Ratio of NF-κ B Activation(%): 95.3%
Drug Concentration 10 μg/mL
  Inhibitory Ratio of NF-κ B Activation(%): 97.4%

## Cl.NCC(=O)Oc1ccc(Cl)cc1C(=O)Nc1cc(C(F)(F)F)cc(C(F)(F)F)c1 [Compound 23]
Drug Concentration 1 μg/mL
  Inhibitory Ratio of NF-κ B Activation(%): 19.8%
Drug Concentration 10 μg/mL
  Inhibitory Ratio of NF-κ B Activation(%): 97.3%

## CCOC(=O)CN(CC(=O)OCC)C(=O)Oc1ccc(Cl)cc1C(=O)Nc1cc(C(F)(F)F)cc(C(F)(F)F)c1 [Compound 75, 2-{N,N-bis[(ethoxycarbonyl)methyl]carbamoyl}oxy-5-chloro-N-[3,5-bis(trifluoromethyl)phenyl]benzamide]
Drug Concentration 1 μg/mL
  inhibition at 1 µg/mL: 94.3%
Drug Concentration 10 μg/mL
  inhibition at 10 µg/mL: 94.9%

## CC(C)C[C@H](N)C(=O)Oc1ccc(Cl)cc1C(=O)Nc1cc(C(F)(F)F)cc(C(F)(F)F)c1.Cl [Compound 27]
Drug Concentration 1 μg/mL
  Inhibitory Ratio of NF-κ B Activation(%): 95.8%
Drug Concentration 10 μg/mL
  Inhibitory Ratio of NF-κ B Activation(%): 99.2%

## O=C(Nc1cc(C(F)(F)F)cc(C(F)(F)F)c1)c1cc(Cl)ccc1OCOC(=O)N1CCOCC1 [Compound 102, 5-Chloro-2-[(morpholinocarbonyl)oxy]methoxy-N-[3,5-bis(trifluoromethyl)phenyl]-benzamide]
Drug Concentration 1 μg/mL
  inhibition at 1 µg/mL: 39.1%
Drug Concentration 10 μg/mL
  inhibition at 10 µg/mL: 70%

## COC(=O)[C@H](C)NC(=O)Oc1ccc(Cl)cc1C(=O)Nc1cc(C(F)(F)F)cc(C(F)(F)F)c1 [Compound 58]
Drug Concentration 1 μg/mL
  Inhibitory Ratio of NF-κ B Activation(%): 97.9%
Drug Concentration 10 μg/mL
  Inhibitory Ratio of NF-κ B Activation(%): 98.8%

## O=C(Nc1cc(C(F)(F)F)cc(C(F)(F)F)c1)c1cc(Cl)ccc1OS(=O)(=O)O [Compound 49]
Drug Concentration 1 μg/mL
  Inhibitory Ratio of NF-κ B Activation(%): 80.1%
Drug Concentration 10 μg/mL
  Inhibitory Ratio of NF-κ B Activation(%): 99.0%

## O=C(Nc1cc(C(F)(F)F)cc(C(F)(F)F)c1)c1c(OC(=O)N2CCOCC2)ccc2ccccc12 [Compound 83, 2-(Morpholinocarbonyl)oxy-N-[3,5-bis(trifluoromethyl)phenyl]-1-naphthamide]
Drug Concentration 1 μg/mL
  inhibition at 1 µg/mL: 23.5%
Drug Concentration 10 μg/mL
  inhibition at 10 µg/mL: 18%

## CC(C)(C)OC(=O)NCCCC[C@H](NC(=O)CNC(=O)Oc1ccc(Cl)cc1C(=O)Nc1cc(C(F)(F)F)cc(C(F)(F)F)c1)C(=O)OC(C)(C)C [Compound 65]
Drug Concentration 1 μg/mL
  Inhibitory Ratio of NF-κ B Activation(%): 95.8%
Drug Concentration 10 μg/mL
  Inhibitory Ratio of NF-κ B Activation(%): 97.3%

## O=C(COc1cccc(Cl)c1Cl)Oc1ccc(Cl)cc1C(=O)Nc1cc(C(F)(F)F)cc(C(F)(F)F)c1 [Compound 14]
Drug Concentration 1 μg/mL
  Inhibitory Ratio of NF-κ B Activation(%): 98.9%
Drug Concentration 10 μg/mL
  Inhibitory Ratio of NF-κ B Activation(%): 99.4%

## CC(=O)OCOc1ccc(Cl)cc1C(=O)Nc1cc(C(F)(F)F)cc(C(F)(F)F)c1 [Compound 98]
Drug Concentration 1 μg/mL
  Inhibitory Ratio of NF-κ B Activation(%): 94.9%
Drug Concentration 10 μg/mL
  Inhibitory Ratio of NF-κ B Activation(%): 96.6%

## COC(=O)[C@H](COC(C)(C)C)NC(=O)Oc1ccc(Cl)cc1C(=O)Nc1cc(C(F)(F)F)cc(C(F)(F)F)c1 [Compound 60]
Drug Concentration 1 μg/mL
  Inhibitory Ratio of NF-κ B Activation(%): 97.7%
Drug Concentration 10 μg/mL
  Inhibitory Ratio of NF-κ B Activation(%): 98.9%

## CCCCC(=O)Oc1ccc(Cl)cc1C(=O)Nc1cc(C(F)(F)F)cc(C(F)(F)F)c1 [Compound 2]
Drug Concentration 1 μg/mL
  Inhibitory Ratio of NF-κ B Activation(%): 97.9%
Drug Concentration 10 μg/mL
  Inhibitory Ratio of NF-κ B Activation(%): 98.6%

## O=C(Oc1ccc(Cl)cc1C(=O)Nc1cc(C(F)(F)F)cc(C(F)(F)F)c1)c1cccnc1 [Compound 6]
Drug Concentration 1 μg/mL
  Inhibitory Ratio of NF-κ B Activation(%): 94.4%
Drug Concentration 10 μg/mL
  Inhibitory Ratio of NF-κ B Activation(%): 98.1%

## CCOC(=O)OC(C)Oc1ccc(Cl)cc1C(=O)Nc1cc(C(F)(F)F)cc(C(F)(F)F)c1 (centres unmarked) [Compound 100]
Drug Concentration 1 μg/mL
  Inhibitory Ratio of NF-κ B Activation(%): 96.1%
Drug Concentration 10 μg/mL
  Inhibitory Ratio of NF-κ B Activation(%): 98.5%

## CC(C)(C)c1ccc(OP(=O)([O-])O)c(C(=O)Nc2cc(C(F)(F)F)cc(C(F)(F)F)c2)c1.[Na+] [Compound 139]
Drug Concentration 1 μg/mL
  Inhibitory Ratio of NF-κ B Activation(%): 64.3%

## O=C(COc1ccccc1)Oc1ccc(Cl)cc1C(=O)Nc1cc(C(F)(F)F)cc(C(F)(F)F)c1 [Compound 12]
Drug Concentration 1 μg/mL
  Inhibitory Ratio of NF-κ B Activation(%): 95.5%
Drug Concentration 10 μg/mL
  Inhibitory Ratio of NF-κ B Activation(%): 97.5%

## CC(C)C[C@H](N)C(=O)N[C@@H](Cc1ccccc1)C(=O)Oc1ccc(Cl)cc1C(=O)Nc1cc(C(F)(F)F)cc(C(F)(F)F)c1 [Compound 41, 5-Chloro-2-[N-(L-leucyl)-L-phenylalanyl]oxy-N-[3,5-bis(trifluoromethyl)phenyl]-benzamide hydrochloride]
Drug Concentration 1 μg/mL
  inhibition at 1 µg/mL: 91.4%
Drug Concentration 10 μg/mL
  inhibition at 10 µg/mL: 99.1%

## O=C(O)C[C@H](NC(=O)CNC(=O)Oc1ccc(Cl)cc1C(=O)Nc1cc(C(F)(F)F)cc(C(F)(F)F)c1)C(=O)O [Compound 64]
Drug Concentration 1 μg/mL
  Inhibitory Ratio of NF-κ B Activation(%): 96.3%
Drug Concentration 10 μg/mL
  Inhibitory Ratio of NF-κ B Activation(%): 97.5%

## CCCS(=O)(=O)Oc1ccc(Cl)cc1C(=O)Nc1cc(C(F)(F)F)cc(C(F)(F)F)c1 [Compound 45]
Drug Concentration 1 μg/mL
  Inhibitory Ratio of NF-κ B Activation(%): 84.7%
Drug Concentration 10 μg/mL
  Inhibitory Ratio of NF-κ B Activation(%): 95.4%

## CC(C)C[C@H](NC(=O)[C@H](CC(=O)OC(C)(C)C)NC(=O)OC(C)(C)C)C(=O)Oc1ccc(Cl)cc1C(=O)Nc1cc(C(F)(F)F)cc(C(F)(F)F)c1 [Compound 37, 2-{N-[N-(tert-butoxycarbonyl)-β-O-(tert-butyl)-α-L-aspartyl]-L-leucyl}oxy-5-chloro-N-[3,5-bis(trifluoromethyl)phenyl]benzamide]
Drug Concentration 1 μg/mL
  Inhibitory Ratio of NF-κ B Activation(%): 96.6%
Drug Concentration 10 μg/mL
  Inhibitory Ratio of NF-κ B Activation(%): 98.1%

## CCCCCCCCCC(=O)Oc1ccc(Cl)cc1C(=O)Nc1cc(C(F)(F)F)cc(C(F)(F)F)c1 [Compound 3]
Drug Concentration 1 μg/mL
  Inhibitory Ratio of NF-κ B Activation(%): 96.1%
Drug Concentration 10 μg/mL
  Inhibitory Ratio of NF-κ B Activation(%): 98.4%

## O=C(O)CNC(=O)Oc1ccc(Cl)cc1C(=O)Nc1cc(C(F)(F)F)cc(C(F)(F)F)c1 [Compound 57, 2-[N-(carboxymethyl)carbamoyl]oxy-5-chloro-N-[3,5-bis(trifluoromethyl)phenyl]-benzamide]
Drug Concentration 1 μg/mL
  inhibition at 1 µg/mL: 95.4%
Drug Concentration 10 μg/mL
  inhibition at 10 µg/mL: 97.2%

## O=C(CNC(=O)OCc1ccccc1)Oc1ccc(Cl)cc1C(=O)Nc1cc(C(F)(F)F)cc(C(F)(F)F)c1 [Compound 21]
Drug Concentration 1 μg/mL
  Inhibitory Ratio of NF-κ B Activation(%): 96.7%
Drug Concentration 10 μg/mL
  Inhibitory Ratio of NF-κ B Activation(%): 98.7%

## O=C(CCC(=O)N1CCCCC1)Oc1ccc(Cl)cc1C(=O)Nc1cc(C(F)(F)F)cc(C(F)(F)F)c1 [Compound 19]
Drug Concentration 1 μg/mL
  Inhibitory Ratio of NF-κ B Activation(%): 97.9%
Drug Concentration 10 μg/mL
  Inhibitory Ratio of NF-κ B Activation(%): 98.8%

## COc1ccc(C(F)(F)F)cc1NC(=O)c1cc(Br)ccc1OC(=O)N1CCOCC1 [Compound 86, 5-Bromo-N-[2-methoxy-5-(trifluoromethyl)phenyl]-2-[(morpholinocarbonyl)oxy]-benzamide]
Drug Concentration 1 μg/mL
  inhibition at 1 µg/mL: 23.4%
Drug Concentration 10 μg/mL
  inhibition at 10 µg/mL: 11.9%

## O=C(COc1ccc(Cl)cc1)Oc1ccc(Cl)cc1C(=O)Nc1cc(C(F)(F)F)cc(C(F)(F)F)c1 [Compound 13]
Drug Concentration 1 μg/mL
  Inhibitory Ratio of NF-κ B Activation(%): 96.6%
Drug Concentration 10 μg/mL
  Inhibitory Ratio of NF-κ B Activation(%): 98.7%

## O=C(Nc1cc(C(F)(F)F)cc(C(F)(F)F)c1)c1cc(-c2ccccc2)ccc1OC(=O)N1CCOCC1 [Compound 81, 2-(Morpholinocarbonyl)oxy-5-phenyl-N-[3,5-bis(trifluoromethyl)phenyl]benzamide]
Drug Concentration 1 μg/mL
  inhibition at 1 µg/mL: 26.4%
Drug Concentration 10 μg/mL
  inhibition at 10 µg/mL: 29.2%

## COc1ccc(C(C)(C)C)cc1C(=O)Nc1cc(C(F)(F)F)cc(C(F)(F)F)c1 [Compound 94]
Drug Concentration 1 μg/mL
  Inhibitory Ratio of NF-κ B Activation(%): 56.1%
Drug Concentration 10 μg/mL
  Inhibitory Ratio of NF-κ B Activation(%): 51.7%

## O=C(Nc1cc(C(F)(F)F)ccc1C(F)(F)F)c1cc(Br)cc(Br)c1OC(=O)N1CCOCC1 [Compound 130, 3,5-Dibromo-2-(morpholinocarbonyl)oxy-N-[2,5-bis(trifluoromethyl)phenyl]-benzamide]
Drug Concentration 1 μg/mL
  inhibition at 1 µg/mL: 18.9%

## O=C(Oc1ccc(Cl)cc1C(=O)Nc1cc(C(F)(F)F)cc(C(F)(F)F)c1)c1ccncc1 [Compound 7]
Drug Concentration 1 μg/mL
  Inhibitory Ratio of NF-κ B Activation(%): 93.9%
Drug Concentration 10 μg/mL
  Inhibitory Ratio of NF-κ B Activation(%): 98.8%

## COc1cc(NC(=O)c2cc(Br)ccc2OC(=O)N2CCOCC2)cc(C(F)(F)F)c1 [Compound 87, 5-Bromo-N-[3-methoxy-5-(trifluoromethyl)phenyl]-2-[(morpholinocarbonyl)oxy]-benzamide]
Drug Concentration 1 μg/mL
  inhibition at 1 µg/mL: 29.7%
Drug Concentration 10 μg/mL
  inhibition at 10 µg/mL: 55.4%

## O=C(COc1ccc(Cl)cc1C(=O)Nc1cc(C(F)(F)F)cc(C(F)(F)F)c1)OCc1ccccc1 [Compound 110, 2-[(benzyloxy)carbonyl]methoxy-5-chloro-N-[3,5-bis(trifluoromethyl)phenyl]-benzamide]
Drug Concentration 1 μg/mL
  inhibition at 1 µg/mL: 38.5%
Drug Concentration 10 μg/mL
  inhibition at 10 µg/mL: 39.2%

## O=c1oc2ccc(Cl)cc2c(=O)n1-c1cc(C(F)(F)F)cc(C(F)(F)F)c1 [Compound 113]
Drug Concentration 1 μg/mL
  inhibition at 1 µg/mL: 96.8%
Drug Concentration 10 μg/mL
  inhibition at 10 µg/mL: 97.9%

## CC(C)(C)OC(=O)[C@H](Cc1ccccc1)NC(=O)CNC(=O)Oc1ccc(Cl)cc1C(=O)Nc1cc(C(F)(F)F)cc(C(F)(F)F)c1 [Compound 61, (S)-2-[N-({N-[1-(tert-butoxycarbonyl)-2-phenylethyl]carbamoyl}methyl)carbamoyl]oxy-5-chloro-N-[3,5-bis(trifluoromethyl)phenyl]benzamide]
Drug Concentration 1 μg/mL
  inhibition at 1 µg/mL: 98.6%
Drug Concentration 10 μg/mL
  inhibition at 10 µg/mL: 99.2%
